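All cell lines were grown in 96-well plates and treated with compound for 48 hours. GI50: concentration for 50% inhibition of growth. TGI: concentration producing complete growth inhibition.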
What was measured:
Assay in all cases: growth of human tumour cells (NCI), 48 h
EKVX NSCLC = test system: EKVX NSCLC
SNB-19 CNS = test system: SNB-19 CNS
TK-10 renal = test system: TK-10 renal
KM12 colon = test system: KM12 colon
ACHN renal = test system: ACHN renal
RPMI-8226 leukemia = test system: RPMI-8226 leukemia
SR leukemia = test system: SR leukemia
MOLT-4 leukemia = test system: MOLT-4 leukemia
MALME-3M melanoma = test system: MALME-3M melanoma
MDA-MB-435 = test system: MDA-MB-435
NCI-H460 lung = test system: NCI-H460 lung
NCI-H23 lung = test system: NCI-H23 lung
SK-MEL-28 melanoma = test system: SK-MEL-28 melanoma
786-0 renal = test system: 786-0 renal
MCF7 breast = test system: MCF7 breast
K-562 leukemia = test system: K-562 leukemia
HCT-15 colon = test system: HCT-15 colon
PC-3 prostate = test system: PC-3 prostate
SN12C renal = test system: SN12C renal
UACC-257 melanoma = test system: UACC-257 melanoma
IGROV1 ovarian = test system: IGROV1 ovarian
OVCAR-4 ovarian = test system: OVCAR-4 ovarian
A549 NSCLC = test system: A549 NSCLC
HCC-2998 colon = test system: HCC-2998 colon
MDA-MB-231 breast = test system: MDA-MB-231 breast
HL-60(TB) leukemia = test system: HL-60(TB) leukemia
HOP-62 NSCLC = test system: HOP-62 NSCLC
RXF 393 renal = test system: RXF 393 renal
SF-539 CNS = test system: SF-539 CNS
A498 renal = test system: A498 renal
COLO 205 colon = test system: COLO 205 colon
NCI/ADR-RES ovarian = test system: NCI/ADR-RES ovarian
HCT-116 colon = test system: HCT-116 colon
SF-268 CNS = test system: SF-268 CNS
LOX IMVI melanoma = test system: LOX IMVI melanoma
SW-620 colon = test system: SW-620 colon
OVCAR-8 ovarian = test system: OVCAR-8 ovarian
HS 578T breast = test system: HS 578T breast
CCRF-CEM leukemia = test system: CCRF-CEM leukemia
HT29 colon = test system: HT29 colon
CAKI-1 renal = test system: CAKI-1 renal
BT-549 breast = test system: BT-549 breast
SNB-75 CNS = test system: SNB-75 CNS
SF-295 CNS = test system: SF-295 CNS
UO-31 renal = test system: UO-31 renal
DU-145 prostate = test system: DU-145 prostate
OVCAR-3 ovarian = test system: OVCAR-3 ovarian
SK-MEL-5 melanoma = test system: SK-MEL-5 melanoma
U251 CNS = test system: U251 CNS
HOP-92 NSCLC = test system: HOP-92 NSCLC
NCI-H522 lung = test system: NCI-H522 lung
OVCAR-5 ovarian = test system: OVCAR-5 ovarian
NCI-H226 lung = test system: NCI-H226 lung
UACC-62 melanoma = test system: UACC-62 melanoma
SK-OV-3 ovarian = test system: SK-OV-3 ovarian
SK-MEL-2 melanoma = test system: SK-MEL-2 melanoma
M14 melanoma = test system: M14 melanoma

With S=c1ncc2n[nH]nc2[nH]1 the TGI (EKVX NSCLC) was > 100 µM, the TGI (SNB-19 CNS) was > 100 µM and the TGI (TK-10 renal) was > 100 µM. For the same compound, the TGI (KM12 colon) was > 100 µM, the TGI (ACHN renal) was > 100 µM and the TGI (RPMI-8226 leukemia) was > 100 µM. The TGI (SR leukemia) was > 100 µM, the TGI (MOLT-4 leukemia) was > 100 µM and the TGI (MALME-3M melanoma) was > 100 µM. The TGI (MDA-MB-435) was > 100 µM, the TGI (NCI-H460 lung) was > 100 µM and the TGI (NCI-H23 lung) was > 100 µM. The TGI (SK-MEL-28 melanoma) was > 100 µM, the TGI (786-0 renal) was > 100 µM and the TGI (MCF7 breast) was > 100 µM. The TGI (K-562 leukemia) was > 100 µM, the TGI (HCT-15 colon) was > 100 µM and the TGI (PC-3 prostate) was > 100 µM. The TGI (SN12C renal) was > 100 µM, the TGI (UACC-257 melanoma) was > 100 µM and the TGI (IGROV1 ovarian) was > 100 µM. For the same compound, the TGI (OVCAR-4 ovarian) was > 100 µM, the TGI (A549 NSCLC) was > 100 µM and the TGI (HCC-2998 colon) was > 100 µM. The TGI (MDA-MB-231 breast) was > 100 µM, the TGI (HL-60(TB) leukemia) was > 100 µM and the TGI (HOP-62 NSCLC) was > 100 µM. The TGI (RXF 393 renal) was > 100 µM, the TGI (SF-539 CNS) was > 100 µM and the TGI (A498 renal) was > 100 µM. The TGI (COLO 205 colon) was > 100 µM, the TGI (NCI/ADR-RES ovarian) was > 100 µM and the TGI (HCT-116 colon) was > 100 µM. For the same compound, the TGI (SF-268 CNS) was > 100 µM, the TGI (LOX IMVI melanoma) was > 100 µM and the TGI (SW-620 colon) was > 100 µM. The TGI (OVCAR-8 ovarian) was > 100 µM, the TGI (HS 578T breast) was > 100 µM and the TGI (CCRF-CEM leukemia) was > 100 µM. For the same compound, the TGI (HT29 colon) was > 100 µM, the TGI (CAKI-1 renal) was > 100 µM and the TGI (BT-549 breast) was > 100 µM. For the same compound, the TGI (SNB-75 CNS) was > 100 µM, the TGI (SF-295 CNS) was > 100 µM and the TGI (UO-31 renal) was > 100 µM. For the same compound, the TGI (DU-145 prostate) was > 100 µM, the TGI (OVCAR-3 ovarian) was > 100 µM and the TGI (SK-MEL-5 melanoma) was > 100 µM. For the same compound, the TGI (U251 CNS) was > 100 µM, the TGI (HOP-92 NSCLC) was > 100 µM and the TGI (NCI-H522 lung) was > 100 µM. The TGI (OVCAR-5 ovarian) was > 100 µM and the TGI (NCI-H226 lung) was > 100 µM.

For COc1ccc([As]=[As]c2ccc(OC)c(NCS(=O)(=O)O)c2)cc1NCS(=O)(=O)O (stereo not given), the GI50 (EKVX NSCLC) was 1.36 µM, the TGI (EKVX NSCLC) was 7.26 µM and the GI50 (SNB-19 CNS) was 1.82 µM. For the same compound, the TGI (SNB-19 CNS) was 3.68 µM, the GI50 (TK-10 renal) was 1.86 µM and the TGI (TK-10 renal) was 3.55 µM. It also gave a GI50 (KM12 colon) of 2.98 µM, a TGI (KM12 colon) of 10.5 µM and a GI50 (ACHN renal) of 1.62 µM. It also gave a TGI (ACHN renal) of 3 µM, a GI50 (RPMI-8226 leukemia) of 0.926 µM and a TGI (RPMI-8226 leukemia) of 5.93 µM. The GI50 (SR leukemia) was 0.691 µM, the TGI (SR leukemia) was 4.88 µM and the GI50 (MOLT-4 leukemia) was 1.33 µM. It also gave a TGI (MOLT-4 leukemia) of 6.18 µM, a GI50 (MALME-3M melanoma) of 1.41 µM and a TGI (MALME-3M melanoma) of 3.34 µM. It also gave a GI50 (MDA-MB-435) of 2.03 µM, a TGI (MDA-MB-435) of 5.26 µM and a GI50 (NCI-H460 lung) of 3.49 µM. It also gave a TGI (NCI-H460 lung) of 12.2 µM, a GI50 (UACC-62 melanoma) of 1.86 µM and a TGI (UACC-62 melanoma) of 4.6 µM. It also gave a GI50 (NCI-H23 lung) of 2.57 µM, a TGI (NCI-H23 lung) of 8.62 µM and a GI50 (SK-MEL-28 melanoma) of 1.45 µM. The TGI (SK-MEL-28 melanoma) was 3 µM, the GI50 (786-0 renal) was 1.63 µM and the TGI (786-0 renal) was 3.51 µM. The GI50 (MCF7 breast) was 1.09 µM, the TGI (MCF7 breast) was 3.44 µM and the GI50 (K-562 leukemia) was 0.615 µM. For the same compound, the TGI (K-562 leukemia) was 11.1 µM, the GI50 (HCT-15 colon) was 1.47 µM and the TGI (HCT-15 colon) was 3.31 µM. For the same compound, the GI50 (SK-OV-3 ovarian) was 10 µM, the TGI (SK-OV-3 ovarian) was 21.8 µM and the GI50 (PC-3 prostate) was 3.14 µM. For the same compound, the TGI (PC-3 prostate) was 11.7 µM, the GI50 (SN12C renal) was 1.54 µM and the TGI (SN12C renal) was 3.34 µM. The GI50 (UACC-257 melanoma) was 1.62 µM, the TGI (UACC-257 melanoma) was 3.37 µM and the GI50 (IGROV1 ovarian) was 1.19 µM. For the same compound, the TGI (IGROV1 ovarian) was 3.4 µM, the GI50 (OVCAR-4 ovarian) was 1.27 µM and the TGI (OVCAR-4 ovarian) was 2.6 µM. The GI50 (A549 NSCLC) was 3.04 µM, the TGI (A549 NSCLC) was 9.96 µM and the GI50 (HCC-2998 colon) was 2.67 µM. The TGI (HCC-2998 colon) was 8.8 µM, the GI50 (MDA-MB-231 breast) was 1.56 µM and the TGI (MDA-MB-231 breast) was 3.4 µM. The GI50 (HL-60(TB) leukemia) was 1.51 µM, the TGI (HL-60(TB) leukemia) was 11.7 µM and the GI50 (HOP-62 NSCLC) was 2.4 µM. The TGI (HOP-62 NSCLC) was 5.9 µM, the GI50 (RXF 393 renal) was 1.41 µM and the TGI (RXF 393 renal) was 3.09 µM. For the same compound, the GI50 (SF-539 CNS) was 1.39 µM, the TGI (SF-539 CNS) was 3.43 µM and the GI50 (A498 renal) was 1.65 µM. The TGI (A498 renal) was 3.26 µM, the GI50 (COLO 205 colon) was 1.52 µM and the TGI (COLO 205 colon) was 3.46 µM. It also gave a GI50 (NCI/ADR-RES ovarian) of 3.49 µM, a TGI (NCI/ADR-RES ovarian) of 27.1 µM and a GI50 (HCT-116 colon) of 1.7 µM. The TGI (HCT-116 colon) was 3.2 µM, the GI50 (SF-268 CNS) was 1.62 µM and the TGI (SF-268 CNS) was 4.12 µM. It also gave a GI50 (LOX IMVI melanoma) of 1.34 µM, a TGI (LOX IMVI melanoma) of 4.49 µM and a GI50 (SW-620 colon) of 1.17 µM. It also gave a TGI (SW-620 colon) of 3.04 µM, a GI50 (OVCAR-8 ovarian) of 2.48 µM and a TGI (OVCAR-8 ovarian) of 6.84 µM. For the same compound, the GI50 (HS 578T breast) was 3.21 µM, the TGI (HS 578T breast) was > 100 µM and the GI50 (CCRF-CEM leukemia) was 0.415 µM. It also gave a TGI (CCRF-CEM leukemia) of 3.14 µM, a GI50 (HT29 colon) of 2.25 µM and a TGI (HT29 colon) of 5.37 µM. For the same compound, the GI50 (BT-549 breast) was 1.11 µM, the TGI (BT-549 breast) was 2.45 µM and the GI50 (SNB-75 CNS) was 1.27 µM. The TGI (SNB-75 CNS) was 2.8 µM, the GI50 (SF-295 CNS) was 3.01 µM and the TGI (SF-295 CNS) was 9.48 µM. It also gave a GI50 (UO-31 renal) of 1.46 µM, a TGI (UO-31 renal) of 3.16 µM and a GI50 (DU-145 prostate) of 3.56 µM. For the same compound, the TGI (DU-145 prostate) was 13.8 µM, the GI50 (OVCAR-3 ovarian) was 1.57 µM and the TGI (OVCAR-3 ovarian) was 3.06 µM. It also gave a GI50 (SK-MEL-2 melanoma) of 1.91 µM, a TGI (SK-MEL-2 melanoma) of 4.54 µM and a GI50 (SK-MEL-5 melanoma) of 1.86 µM. For the same compound, the TGI (SK-MEL-5 melanoma) was 4.27 µM, the GI50 (U251 CNS) was 0.768 µM and the TGI (U251 CNS) was 2.25 µM. For the same compound, the GI50 (HOP-92 NSCLC) was 1.45 µM, the TGI (HOP-92 NSCLC) was 3.24 µM and the GI50 (NCI-H522 lung) was 0.324 µM. It also gave a TGI (NCI-H522 lung) of 1.53 µM, a GI50 (M14 melanoma) of 2.15 µM and a TGI (M14 melanoma) of 5.69 µM. For the same compound, the GI50 (OVCAR-5 ovarian) was 2.02 µM, the TGI (OVCAR-5 ovarian) was 4.22 µM and the GI50 (NCI-H226 lung) was 4.07 µM. It also gave a TGI (NCI-H226 lung) of 17.3 µM.

Source: PubChem BioAssay (NCI)
